{"source": "patent US20240148819A1", "about": "“COMPOUNDS FOR USE IN THE TREATMENT OF SINUSITIS, PNEUMONIA OR OTITIS” (PHARMA HOLDINGS AS, priority 2021, published 2024)", "key": {"[1]": {"tested_on": "Respiratory Syncytial Virus (RSV)", "assay": "TCID50 assay after 1 h incubation of virus with LTX-109 (Example 2)", "assay_type": "cell-based", "settings": "for Percentage: decrease in RSV infectivity, compared to PBS control", "procedure": "To test whether 1% LTX-109 (w/v) and 0.1% LTX-109 (w/v) have antiviral activity against RSV, 1×10^5 infectious units of RSV (40 μl) were incubated with four volumes of 1% LTX-109 or 0.1% LTX-109 dissolved in PBS (160 μl) or a PBS (Phosphate-buffered saline) control. The experiment was performed in triplicates.\nAfter 1 hour, the incubation was stopped by adding an excess of cold media, and the formulation was physically separated from the virus through a filter to reduce cytotoxicity on the assay cells. Some cloudiness in the preparation was observed, particularly for the 1% formulation, but no precipitation. Infectious virus was quantified through a serial dilution (a series of ten-fold dilutions) on monolayers of Hep2 cells in microtitre plates (Hep2 cells are mammalian cells capable of displaying a cytopathic effect (CPE) upon viral infection). The starting solution for the serial dilution (i.e. the neat (or undiluted) solution) was obtained by re-suspending the virus that was separated via the filtration step in 1 ml of media. For each dilution of the virus in the dilution series, eight wells of the microtitre plate were tested (i.e. each dilution of virus was applied to eight separate wells, each well containing a Hep2 cell monolayer). Appropriate controls were also performed. […] The TCID50 (TCID50/ml) assay (Tissue Culture Infectious Dose 50 assay) is a type of endpoint dilution assay that is well known in the art and routinely used to quantitatively measure virus titres. TCID50/ml provides a measure of infectious units of virus/ml. “/ml” refers to/ml of the starting solution (i.e. neat/undiluted solution) mentioned above."}, "[2]": {"tested_on": "Candida albicans", "procedure": "(§1) Bacterial and fungal isolates used in this study were from various sources worldwide stored at GR Micro Ltd. and maintained, with minimal sub-culture, deep frozen at −70° C. as a dense suspension in a high protein matrix of undiluted horse serum.\n(§2) Minimum inhibitory concentration (MIC) of LTX-109 was determined using the following microbroth dilution methods for antimicrobial susceptibility testing published by the Clinical and Laboratory Standards Institute (CLSI, formerly NCCLS): • M7-A6 Vol. 23 No. 2 Jan. 2003 Methods for Dilution Antimicrobial Susceptibility Tests for Bacteria that Grow Aerobically; Approved Standard-Sixth Edition. National Committee for Clinical Laboratory Standards. • M100-S15 Vol. 25 No 1. January 2005 Performance Standards for Antimicrobial Susceptibility Testing; Fifteenth Informational Supplement. Clinical and Laboratory Standards Institute • M11-A6 Vol. 24 No. 2 Methods for Antimicrobial Susceptibility Testing of Anaerobic Bacteria; Approved Standard-Sixth Edition. National Committee for Clinical Laboratory Standards. • M27-A2 Vol. 22 No. 15 Reference Method for Broth Dilution Antifungal Susceptibility Testing of Yeasts; Approved Standard-Second Edition. National Committee for Clinical Laboratory Standards. • M38-A Vol. 22 No. 16 Reference Method for Broth Dilution Antifungal Susceptibility Testing of Filamentous Fungi; Approved Standard. National Committee for Clinical Laboratory Standards.\n(§3) MIC estimations were performed using wet plates, containing the LTX-109, prepared at GR Micro Ltd.\n(§4) Yeast and filamentous fungal MIC were performed in MOPS buffered RPMI 1640 medium (MOPS buffer obtained from Sigma Aldrich Ltd., RPMI 1640 obtained from Invitrogen Ltd, Paisley, Scotland). The yeast inocula were in the range 7.5×10^2-4×10^3 CFU/mL and the filamentous fungi approximately 8×10^3-1×10^5 CFU/mL.\n(§5) Following normal practice all the plates containing Mueller-Hinton broth were prepared in advance, frozen at −70° C. on the day of preparation and defrosted on the day of use. Fungal, Haemophilus and anaerobic MIC determinations were all performed in plates prepared on the same day."}, "[3]": {"tested_on": "Candida parapsilosis", "settings": "Candida parapsilosis - ATCC90018 - reference strain", "procedure": "as §1, §2, §3, §4, §5"}, "[4]": {"tested_on": "Candida tropicalis", "settings": "Candida tropicalis - ATCC750 - reference strain", "procedure": "as §1, §2, §3, §4, §5"}, "[5]": {"tested_on": "Candida krusei", "settings": "Candida krusei - ATCC6258 - reference strain", "procedure": "as §1, §2, §3, §4, §5"}, "[6]": {"tested_on": "Aspergillus niger", "settings": "Aspergillus niger - G. R. Micro collection", "procedure": "as §1, §2, §3, §4, §5"}, "[7]": {"tested_on": "HeLa cells", "assay": "Parallel test without virus for residual cytotoxicity (Example 7)", "assay_type": "cell-based, human", "settings": "3% LTX-109 (w/v) or 0.25% SDS, after dilution (50 μl in 5 ml), no virus", "description": "(§6) A parallel test where the same procedure was carried out in the absence of virus was included to determine any residual cytotoxic effect of the formulation on the assay cells."}, "[8]": {"tested_on": "Hep2 cells", "settings": "1 h, after filtration, no virus", "description": "as §6"}, "[9]": {"tested_on": "MDCK-II cells", "settings": "1% LTX-109 (w/v) in PBS, 1 h, after filtration, no virus; dilution up to which cytotoxicity on MDCK-II cells was seen", "description": "as §6"}, "[10]": {"tested_on": "Vero cells", "settings": "1% LTX-109 (w/v), 1 h, after filtration, no virus", "description": "as §6"}, "[11]": {"tested_on": "Rhinovirus 60, 2268-CV37", "assay": "TCID50 assay after 1 h incubation of virus with 1% LTX-109 (Example 6)", "assay_type": "cell-based"}, "[12]": {"tested_on": "Rhinovirus 60, 2268-CV37", "assay": "TCID50 assay after 1 h incubation of virus with 3% LTX-109, stopped by dilution (Example 7)", "assay_type": "cell-based"}, "[13]": {"tested_on": "SARS-CoV-2 Isolate England02/2020", "assay_type": "cell-based"}, "[14]": {"tested_on": "Haemophilus influenzae", "procedure": "as §1, §2, §3, §5"}}, "note": "Several values for one entry are separate records, joined by “and”; a condition that tells them apart may be missing. Identical values can stand only once. Like-named read-outs stand apart in the source and are kept apart here.", "data": [{"smiles": "CC(C)(C)c1cc(C(C)(C)C)c2[nH]c(C(C)(C)C)c(CC(NC(=O)C(N)CCCNC(=N)N)C(=O)NC(CCCNC(=N)N)C(=O)NCCc3ccccc3)c2c1", "note": "(centres unmarked) [LTX-109]", "values": [{"measurement": "Percentage", "setting": "[1]; 0.1% LTX-109, 1 h", "result": "99.9% and 99.97%"}, {"measurement": "Percentage", "setting": "[1]; 1% LTX-109, 1 h", "result": "99.9% and 99.949%"}, {"measurement": "Log", "setting": "[1]; log of RSV titre after 1 h with 0.1% LTX-109", "result": 1.78}, {"measurement": "Log", "setting": "[1]; log of RSV titre after 1 h with 1% LTX-109", "result": 2.20}, {"measurement": "MIC", "setting": "[2]; Candida albicans - ATCC24433 - reference strain", "result": 8, "unit": "µg/mL"}, {"measurement": "MIC", "setting": "[2]; Candida albicans - ATCC90028 - reference strain", "result": 8, "unit": "µg/mL"}, {"measurement": "MIC", "setting": "[3]", "result": 16, "unit": "µg/mL"}, {"measurement": "MIC", "setting": "[4]", "result": 4, "unit": "µg/mL"}, {"measurement": "MIC", "setting": "[5]", "result": 4, "unit": "µg/mL"}, {"measurement": "MIC", "setting": "[6]", "result": 8, "unit": "µg/mL"}, {"measurement": "Cytotoxicity", "setting": "[7]", "result": "Neat"}, {"measurement": "With Filtration (cytotoxicity)", "setting": "[8]; 0.1% LTX-109 (w/v)", "result": "No cytotoxicity"}, {"measurement": "With Filtration (cytotoxicity)", "setting": "[8]; 1% LTX-109 (w/v)", "result": "Up to 10^−1"}, {"measurement": "With Filtration (cytotoxicity)", "setting": "[9]", "result": "Up to 10^−1"}, {"measurement": "With Filtration (cytotoxicity)", "setting": "[10]", "result": "Up to 10^−1"}, {"measurement": "Log decrease", "setting": "[11]; Rhinovirus, 1% LTX-109 or 0.25% SDS, 1 hour, compared to PBS control", "result": 1.9, "unit": "log"}, {"measurement": "Percentage", "setting": "[11]; decrease in Rhinovirus infectivity, 1% LTX-109 or 0.25% SDS, 1 hour, compared to PBS control", "result": 98.89, "unit": "%"}, {"measurement": "Log", "setting": "[11]; log of Rhinovirus titre after 1 hour with 1% LTX-109 or 0.25% SDS", "result": 3.7}, {"measurement": "Log decrease", "setting": "[12]; Rhinovirus, 3% LTX-109 or 0.25% SDS, 1 hour, compared to PBS control", "result": 1.9, "unit": "log"}, {"measurement": "Percentage", "setting": "[12]; decrease in Rhinovirus infectivity, 3% LTX-109 or 0.25% SDS, 1 hour, compared to PBS control", "result": 98.87, "unit": "%"}, {"measurement": "Log", "setting": "[12]; log of Rhinovirus titre after 1 hour with 3% LTX-109 or 0.25% SDS", "result": 2.3}, {"measurement": "Log", "setting": "[13]", "result": 2.28}, {"measurement": "Percentage", "setting": "[13]", "result": "99.99% and 99.995%"}, {"measurement": "MIC", "setting": "[14]; Haemophilus influenzae - β-lactamase negative clinical isolate", "result": 8, "unit": "µg/mL"}, {"measurement": "MIC", "setting": "[14]; Haemophilus influenzae - β-lactamase negative, ampicillin resistant", "result": 8, "unit": "µg/mL"}, {"measurement": "MIC", "setting": "[14]; Haemophilus influenzae - β-lactamase positive clinical isolate", "result": 8, "unit": "µg/mL"}]}]}
